Measurements taken from paper PMC5538626, “Structural and functional analysis of the GABARAP interaction motif (GIM)” (EMBO Reports, 2017).
Ends that are not written are not given here.

Columns and labels:
Type in all cases: binding
Conditions in all cases: 25°C, pH 7.0
GABARAP-L1 = target: T1, GABARAP-L1 (Homo sapiens, UniProt Q9H0R8); assay: ITC titration of PLEKHM1-LIR peptide into GABARAP-L1
T1 construct: modified Ub-leader (ubiquitin fusion leader) (N); made in house; host or cells: E. coli NEB T7 Express
T1 sequence (Q9H0R8 whole entry, the tested form may be a part): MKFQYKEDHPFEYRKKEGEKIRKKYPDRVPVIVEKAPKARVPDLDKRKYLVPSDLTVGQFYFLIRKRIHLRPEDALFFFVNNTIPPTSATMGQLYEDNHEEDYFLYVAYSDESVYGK
Procedure: (§1) The genes for the truncated LC3A^2–121, LC3C^8–125, GABARAP^2–117 and GABARAP‐L1^2–117 proteins were cloned into pET30ΔSE vector between the BamHI and XhoI sites using previously established protocols 38. The chimeric constructs of the PLEKHM1‐LIR attached to the LC3A, GABARAP and GABARAP‐L1 proteins were prepared by inserting the oligonucleotide sequence corresponding to the PLEKHM1‐LIR peptide (P^629[…]^638) and glycine–serine linker into the BamHI site of the pET30ΔSE vector, placing the PLEKHM1‐LIR at the N‐terminal of the mature chimeric protein (similar to 31, 38). For the expression of human LC3 and GABARAP proteins for ITC and NMR experiments, plasmids with appropriate modified Ub‐leaders in pET vectors were used 39. Gene, encoding PLEKHM1‐LIR peptide, was ordered as synthetic oligonucleotides (Eurofins Genomics GmbH) and cloned into the pET39_Ub63_ vector 39 by NcoI–BamHI restriction sites. After TEV cleavage, the resulting peptide has the amino acid sequence GAMG‐P^629[…]^642, where the first four residues (GAMG) are the cloning artefact.
(§2) The chimeric constructs were expressed as a His‐tag fusion protein in E. coli BL21(DE3) cells. The cells were induced with 0.3 mM IPTG at OD600 0.6 for 16 h at 26°C. The cell pellets were lysed using mechanical sonication in lysis buffer (20 mM Tris–HCl pH 9.0, 100 mM NaCl, 10 mM imidazole, supplemented with 0.1% Triton X‐100). The proteins were purified using Ni‐NTA beads (GE Healthcare) and the His‐tag was cleaved using thrombin (Invitrogen) at room temperature for 16 h. The last step was gel filtration chromatography using a Superdex S200/300 GL column (GE Healthcare). The proteins were concentrated using spin concentrators (Vivaspin). For ITC and NMR studies, the non‐labelled and stable isotopes labelled LC3 and GABARAP proteins were obtained based on the protocols described elsewhere 30, 39. Here, E. coli NEB T7 Express culture transformed with corresponding plasmids were grown till OD600 nm = 1.0 and protein expression was induced with 0.2 mM IPTG. The cultures were incubated at 25°C for 8–12 h before cell harvesting. Isolation and purification procedures were similar to those reported in Ref. 22, 40. Before experiments, all proteins and peptides were equilibrated with a buffer containing 50 mM Na2HPO4, 100 mM NaCl at pH 7.0, and supplied with 5 mM protease inhibitor cocktail.
(§3) The protocol for preparation of non‐labelled and ^13C,^15N‐labelled PLEKHM1‐LIR peptide was slightly modified to achieve highest yield of the peptide. The 50 ml M9 culture was inoculated with NEB T7 cell transformed with pET39_Ub63‐PLEKHM1‐LIR plasmid and grown overnight at 37°. The collected cells were resuspended in 2 l of either LB or M9 media contained 1.5 g ^15N‐labelled NH4Cl and 3.0 g of ^13C‐labelled glucose. The cultures were grown at 37° till A(600 nm) = 0.9 and supplied with 1 mM of IPTG to induce Ub63‐PLEKHM1‐LIR overexpression (3 h at 37°). After that cells were harvested by centrifugation, re‐suspended in buffer contained 50 mM Tris–HCl pH = 7.9, 200 mM NaCl, 5% glycerol, 0.1 mg/ml DNase A and 4 mM protease inhibitor cocktail. After cell lysis by French press, debris was removed by centrifugation and clear supernatant was applied onto the column contained Ni‐NTA Sepharose equilibrated with the loading buffer (50 mM Tris–HCl pH = 7.9, 250 mM NaCl, 1% glycerol and 20 mM imidazole). Elution was performed with 400 mM imidazole in the same buffer. An aliquot of pure Ub63‐PLEKHM1‐LIR fractions was further purified by gel filtration on Superdex75 26 × 60 column for control ITC and analytical size exclusion chromatography experiments, remaining fusion protein was processed with the TEV‐protease and PLEKHM1‐LIR peptide was purified to 95% purity by reverse Ni‐NTA chromatography and followed gel filtration on Superdex75 26 × 60 column. Peak maximum of peptide was detected at […] (void volume 115 ml). Pure peptide was concentrated in Amicon concentrators with cut‐off of 3 kDa (> 95% retention). […]

LC3A = target: T2, LC3A (Homo sapiens, UniProt Q9H492); assay: ITC titration of PLEKHM1-LIR peptide into LC3A
T2 construct: modified Ub-leader (ubiquitin fusion leader) (N); made in house; host or cells: E. coli NEB T7 Express
Procedure: as §1, §2, §3

LC3C = target: T3, LC3C (Homo sapiens, UniProt Q9BXW4); assay: ITC titration of PLEKHM1-LIR peptide into LC3C
T3 construct: modified Ub-leader (ubiquitin fusion leader) (N); made in house; host or cells: E. coli NEB T7 Express
T3 sequence (Q9BXW4 whole entry, the tested form may be a part): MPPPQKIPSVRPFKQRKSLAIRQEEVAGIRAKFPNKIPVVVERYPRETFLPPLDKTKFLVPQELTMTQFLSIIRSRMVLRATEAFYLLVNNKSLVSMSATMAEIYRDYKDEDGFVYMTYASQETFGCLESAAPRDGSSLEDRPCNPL
Procedure: as §1, §2, §3

[1] = VP-ITC, one-site model, 0.4 mM peptide into 0.020 mM protein, 50 mM Na2HPO4, 100 mM NaCl

With GAMGPQQEDEWVNVQYPD [PLEKHM1‐LIR WT] the ΔH (GABARAP-L1; [1]) was -7.8 ± 0.1 kcal/mol, the KA (GABARAP-L1) was 1.3 ± 0.1 ×10^6 M^−1 and the “N (number of binding sites)” value (GABARAP-L1) was 1.00 ± 0.01. The ΔG (GABARAP-L1) was -8.35 kcal/mol, the ΔS (GABARAP-L1) was “+1.94 cal mol^−1 K^−1” and the “−T × ΔS” value (GABARAP-L1) was -0.58 kcal/mol. For the same sequence, the ΔH (LC3A; [1]) was -7 ± 0.2 kcal/mol, the KA (LC3A) was 0.24 ± 0.02 ×10^6 M^−1 and the “N (number of binding sites)” value (LC3A) was 0.98 ± 0.02. The ΔG (LC3A) was -7.33 kcal/mol, the ΔS (LC3A) was “+1.17 cal mol^−1 K^−1” and the “−T × ΔS” value (LC3A) was -0.35 kcal/mol. For the same sequence, the ΔH (LC3C; [1]) was -8.3 ± 0.2 kcal/mol, the KA (LC3C) was 0.29 ± 0.02 ×10^6 M^−1 and the “N (number of binding sites)” value (LC3C) was 0.99 ± 0.02. For the same sequence, the ΔG (LC3C) was -7.48 kcal/mol, the ΔS (LC3C) was −2.83 cal mol^−1 K^−1 and the “−T × ΔS” value (LC3C) was “+0.84 kcal mol^−1”.
